Laboratory results from patent US11926628B2 (Gilead Sciences, Inc., priority 2021, dated 2024).

Tests used:
[1] = molecular target: human DGKα (Homo sapiens (Human), UniProt P23743); experiment: DGKα Biochemical Activity Assay (ADP-Glo); settings: recombinant DGKα 1 nM, 100 μM ATP, 18:1 DAG/POPS/octylglucoside micelles, 1 hour at 25° C.; geometric mean; read-out: HTBS DGKa 1X ATP KM IC50
From the text: Alternatively, the enzymatic activity of human DGKα was monitored in a biochemical assay in the presence or absence of compounds and using micelles containing 18:1 Diacylglycerol (DAG), 16:0-18:1 PS (POPS) and Octylglucoside as substrate. DGKα activity led to conversion of DAG and ATP to Phosphatidic Acid (PA) and ADP. Levels of ADP were monitored by bioluminescence using the ADP-Glo Kinase Assay (Promega) and were indicative of DGKα activity.
Ten nanoliters of test compound dissolved in DMSO at various concentrations were dispensed into a 384-well low volume nonbinding service white plates (Corning #3824) using a Labcyte Echo instrument. Recombinant DGKα (Carna Biosciences) in assay buffer (5 μL in 50 mM MOPS [3-(N-morpholino) propanesulfonic acid], pH 7.2; 0.0025% Triton X-100; 1 mM dithiothreitol; 5 mM MgCl2, 200 μM ATP) was added to the compound-containing plate and was incubated for 15 minutes at 25° C. A substrate solution (5 μL in 1.7 mM 1,2-dioleoyl-sn-glycerol [18:1 DAG], 13.5 mM 1-palmitoyl-2-oleoyl-sn-glycero-3-phospho-L-serine [16:0-18:1 PS](POPS), 2 μM CaCl2, 100 mM Octylglucoside (OG), 1 mM DTT) (obtained from Carna Biosciences) diluted in DGK ALPHA assay buffer was then added to start the reaction. Final concentrations were 1 nM DGKα, 100 μM ATP, 1 μM calcium chloride, 0.85 mM 1,2-dioleoyl-sn-glycerol (18:1 DAG), 6.75 mM 1-palmitoyl-2-oleoyl-sn-glycero-3-phospho-L-serine (16:0-18:1 PS) (POPS), 1 μM CaCl2), 50 mM Octylglucoside (OG) and 5 mM MgCl2. The reaction mixture was incubated at 25° C. for 1 hour. ADP-Glo Reagent (10 μL, 10 mM Mg added) provided by the kit was added to each well and incubated at 25° C. for 40 minutes. Then, 20 μL of Kinase Detection Reagent was added and incubated at 25° C. for 40 minutes. Luciferase activity of each well was measured via luminescence on an Envision plate reader (PerkinElmer).
Data were normalized based on maximum inhibition (50 μM of kinase inhibitor CU3) and no inhibition (DMSO) controls. Least squares curve fittings were performed using a four-parameter variable slope nonlinear regression model. IC50 was defined as the concentration of compound required to inhibit 50% of maximum activity. IC50 values from multiple experiments were averaged by geometric mean and the standard deviation was calculated.

[2] = tested on: Jurkat NFκB-luciferase cells; experiment: Jurkat NFκB-Luciferase Assay; format: cell-based; settings: Homo sapiens; Jurkat NFκB-luciferase cells activated with anti-CD3 antibody (OKT3), 2.5 hrs at 37° C.; geometric mean; read-out: DGK NFKb Luciferase EC50
Protocol: The activity of compounds was tested in a cell based NFκB reporter assay. Jurkat cells that are stably expressing a luciferase reporter construct under the transcriptional control of a NFκB reporter element were activated with an anti-CD3 antibody and luciferase levels were measured with a bioluminescence readout. An increase in the levels of bioluminescence was indicative of enhanced T-cell activation following DGKα inhibition by the compound.
Flat-bottom polystyrene plates (384-well, tissue culture treated) were coated overnight at 4° C. with 20 ul/well of a solution of phosphate-buffered saline supplemented with 5 ug/ml anti-CD3 antibody (clone OKT3, Biolegend). The day after, the excess antibody was washed out five times with 100 ul/well of assay medium (RPMI supplemented with 10% fetal bovine serum) using a Biotek EL406 instrument and leaving 20 ul of residual volume in each well. Jurkat NFκB-luciferase cells (Promega #) were harvested and diluted to 1 million cells/ml in assay medium. Sixty nanoliters of test compound dissolved in DMSO at various concentrations were dispensed into 384-well v-bottom polypropylene plates (Greiner) using a Labcyte Echo instrument. Thirty microliters of medium containing the Jurkat NFκB-luciferase cells were then dispensed using a Biotek MicroFlo instrument in each well of the compound-containing plate. The medium/cell/compound mixture was mixed with a Bravo instrument and 20 ul/well of the mixture was transferred to the anti-CD3-coated plate. The assay mixture was then incubated for 2.5 hrs at 37° C. followed by equilibration at 25° C. for 30 min. Forty microliters of One-Glo Ex (Promega) was then added to the assay mixture and luciferase activity was read on a Envision plate reader 7 minutes later.
Bioluminescence data were normalized based on maximum enhancement (1 micromolar of compound) and on basal activation (DMSO) controls. Least squares curve fittings were performed using a four-parameter variable slope nonlinear regression model. EC50 is defined as the concentration of compound required to produce 50% of maximum NFκB luciferase signal. EC50 values from multiple experiments were averaged by geometric mean and the standard deviation was calculated.

human DGKα, sequence (P23743 whole entry): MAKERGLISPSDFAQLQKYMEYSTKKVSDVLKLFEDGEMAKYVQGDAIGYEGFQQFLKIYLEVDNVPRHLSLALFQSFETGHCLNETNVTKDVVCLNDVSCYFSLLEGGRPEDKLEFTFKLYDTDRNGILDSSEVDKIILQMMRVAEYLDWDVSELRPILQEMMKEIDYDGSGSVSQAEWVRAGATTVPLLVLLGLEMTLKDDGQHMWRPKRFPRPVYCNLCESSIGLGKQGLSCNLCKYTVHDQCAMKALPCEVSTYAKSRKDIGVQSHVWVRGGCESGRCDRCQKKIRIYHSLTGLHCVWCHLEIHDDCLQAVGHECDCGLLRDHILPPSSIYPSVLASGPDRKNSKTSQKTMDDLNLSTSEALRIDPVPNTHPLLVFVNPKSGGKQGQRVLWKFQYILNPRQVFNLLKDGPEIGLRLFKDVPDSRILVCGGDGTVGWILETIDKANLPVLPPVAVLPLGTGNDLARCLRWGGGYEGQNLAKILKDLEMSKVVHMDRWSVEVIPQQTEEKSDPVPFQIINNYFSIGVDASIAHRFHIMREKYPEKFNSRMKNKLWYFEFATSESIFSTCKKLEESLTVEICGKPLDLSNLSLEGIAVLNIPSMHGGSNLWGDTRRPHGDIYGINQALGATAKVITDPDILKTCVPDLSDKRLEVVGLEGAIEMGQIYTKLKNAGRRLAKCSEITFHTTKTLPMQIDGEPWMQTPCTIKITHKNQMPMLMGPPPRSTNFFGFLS

SMILES	IC50 [1]	EC50 [2]
CN(c1cccc(C#CC(C)(C)O)c1)c1nc2nccn2c2cc(Cl)ccc12 [Example 1, 4-(3-((8-chloroimidazo[1,2-a]quinazolin-5-yl)(methyl)amino)phenyl)-2-methylbut-3-yn-2-ol]	165 nM	14 nM
CN(c1cc(F)cc(C#CC2(C(F)(F)F)CC2)c1)c1nc2cncn2c2cc(Cl)ccc12 [Example 2, 8-chloro-N-[3-fluoro-5-[2-[1-(trifluoromethyl)cyclopropyl]ethynyl]phenyl]-N-methyl-imidazo[1,5-a]quinazolin-5-amine]	2310 nM	5.11 nM
CN(c1cc(F)cc(C#CC(C)(C)O)c1)c1nc2cncn2c2cc(Cl)ccc12 [Example 3, 4-[3-[(8-chloroimidazo[1,5-a]quinazolin-5-yl)-methyl-amino]-5-fluoro-phenyl]-2-methyl-but-3-yn-2-ol]	839 nM	14.6 nM
CN(c1cc(F)cc(-c2cnc(C3CC3)cn2)c1)c1nc2nnnn2c2cc(Cl)ccc12 [Example 4, 8-chloro-N-(3-(5-cyclopropylpyrazin-2-yl)-5-fluorophenyl)-N-methyltetrazolo[1,5-a]quinazolin-5-amine]	27.6 nM	0.669 nM
CN(c1cccc(-c2ccc(N3CCCS3(=O)=O)cc2)c1)c1nc2nnnn2c2cc(Cl)ccc12 [Example 5, 2-(3′-((8-chlorotetrazolo[1,5-a]quinazolin-5-yl)(methyl)amino)-[1,1′-biphenyl]-4-yl)isothiazolidine 1,1-dioxide]	28.4 nM	4.2 nM
CN(c1cc(F)cc(-c2cnc(C3CC3)cn2)c1)c1nc2nnnn2c2ccc(F)cc12 [Example 6, N-(3-(5-cyclopropylpyrazin-2-yl)-5-fluorophenyl)-7-fluoro-N-methyltetrazolo[1,5-a]quinazolin-5-amine]	15.7 nM	1.31 nM
CCN(c1cc(F)cc(-c2ccc(N3CC4(CC4)CS3(=O)=O)nc2)c1)c1nc2nnnn2c2cc(Cl)ccc12 [Example 7]	117 nM	7.41 nM
CN(c1cc(F)cc(-c2ccc(N3CC4(CC4)CS3(=O)=O)nc2)c1)c1nc2nnnn2c2ccc(F)cc12 [Example 8]	31.1 nM	4.66 nM
CN(c1cccc(-c2cnc(C3CC3)cn2)c1)c1nc2nnnn2c2cc(Cl)ccc12 [Example 9, 8-chloro-N-(3-(5-cyclopropylpyrazin-2-yl)phenyl)-N-methyltetrazolo[1,5-a]quinazolin-5-amine]	44.3 nM	1.75 nM
CN(c1cccc(C#CC(C)(C)O)c1)c1nc2nnnn2c2cc(Cl)ccc12 [Example 10, 4-(3-((8-chlorotetrazolo[1,5-a]quinazolin-5-yl)(methyl)amino)phenyl)-2-methylbut-3-yn-2-ol]	93.1 nM	8.66 nM
CN(c1cccc(Br)c1)c1nc2nnnn2c2cc(Cl)ccc12 [Example 11, N-(3-bromophenyl)-8-chloro-N-methyltetrazolo[1,5-a]quinazolin-5-amine]	430 nM	36.4 nM
CN(c1cc(F)cc(C#CC(C)(C)C(F)F)c1)c1nc2nnnn2c2ccc(F)cc12 [Example 12]	107 nM	2.52 nM
CN(c1cc(F)cc(C#CC(C)(C)O)c1)c1nc2nnnn2c2ccc(F)cc12 [Example 13, 4-(3-fluoro-5-((7-fluorotetrazolo[1,5-a]quinazolin-5-yl)(methyl)amino)phenyl)-2-methylbut-3-yn-2-ol]	12.8 nM	7.54 nM
CN(c1cc(F)cc(C#CC2(C(F)F)CC2)c1)c1nc2nnnn2c2ccc(F)cc12 [Example 14]	65.7 nM	1.54 nM
CN(c1cc(F)cc(C#CC(C)(C)C)c1)c1nc2nnnn2c2ccc(F)cc12 [Example 15]	42.9 nM	1.79 nM
CN(c1cc(F)cc(C#CC2(C(F)(F)F)CC2)c1)c1nc2nnnn2c2ccc(F)cc12 [Example 16]	22.4 nM	3.24 nM
Cc1nnc2nc(N(CC(F)F)c3cc(F)cc(C#CC(C)(C)O)c3)c3ncccc3n12 [Example 17, 4-(3-((2,2-difluoroethyl)(1-methylpyrido[2,3-e][1,2,4]triazolo[4,3-a]pyrimidin-5-yl)amino)-5-fluorophenyl)-2-methylbut-3-yn-2-ol]	77.7 nM	44.3 nM
Cc1nnc2nc(N(CC(F)F)c3cc(F)cc(C#CC4(C(F)(F)F)CC4)c3)c3ncccc3n12 [Example 18, N-(2,2-difluoroethyl)-N-(3-fluoro-5-((1-(trifluoromethyl)cyclopropyl)ethynyl)phenyl)-1-methylpyrido[2,3-e][1,2,4]triazolo[4,3-a]pyrimidin-5-amine]	64.4 nM	4.73 nM
CC(C)(O)C#Cc1cc(F)cc(N(CC(F)F)c2nc3nncn3c3cccnc23)c1 [Example 19, 4-(3-((2,2-difluoroethyl)(pyrido[2,3-e][1,2,4]triazolo[4,3-a]pyrimidin-5-yl)amino)-5-fluorophenyl)-2-methylbut-3-yn-2-ol]	67.6 nM	47.7 nM
Cc1nnc2nc(N3CCCc4c(C#CC5(C(F)(F)F)CC5)cccc43)c3c(F)cncc3n12 [Example 41, 6-fluoro-1-methyl-5-(5-((1-(trifluoromethyl)cyclopropyl)ethynyl)-3,4-dihydroquinolin-1(2H)-yl)pyrido[4,3-e][1,2,4]triazolo[4,3-a]pyrimidine]	–	2.4 nM
CN(c1cccc(C#CC(C)(C)C)c1)c1nc2nncn2c2cnccc12 [Example 60]	–	6.75 nM
Cc1nnc2nc(N3CCCCc4c(C#CC(C)(C)C#N)cccc43)c3c(F)cncc3n12 [Example 64, 4-(1-(6-fluoro-1-methylpyrido[4,3-e][1,2,4]triazolo[4,3-a]pyrimidin-5-yl)-2,3,4,5-tetrahydro-1H-benzo[b]azepin-6-yl)-2,2-dimethylbut-3-ynenitrile]	–	5.98 nM
CN(C)c1ccc2c(N(C)c3cccc(C#CC(C)(C)C)c3)nc3nncn3c2n1 [Example 110, N^5-(3-(3,3-dimethylbut-1-yn-1-yl)phenyl)-N^2,N^2,N^5-trimethylpyrido[3,2-e][1,2,4]triazolo[4,3-a]pyrimidine-2,5-diamine]	–	9.9 nM
COc1ccc(-c2cccc(N(C)c3nc4nncn4c4nc(N(C)C)ccc34)c2)cn1 [Example 111, N^5-(3-(6-methoxypyridin-3-yl)phenyl)-N^2,N^2,N^5-trimethylpyrido[3,2-e][1,2,4]triazolo[4,3-a]pyrimidine-2,5-diamine]	–	20.1 nM
CN(C)c1ccc2c(N(C)c3cccc(-c4ccc(C5CC5)cc4)c3)nc3nncn3c2n1 [Example 112, N^5-(4′-cyclopropyl-[1,1′-biphenyl]-3-yl)-N^2,N^2,N^5-trimethylpyrido[3,2-e][1,2,4]triazolo[4,3-a]pyrimidine-2,5-diamine]	–	0.982 nM
CCOc1ccc2c(N(C)c3cccc(-c4ccc(C5CC5)cc4)c3)nc3nncn3c2n1 [Example 113, N-(4′-cyclopropyl-[1,1′-biphenyl]-3-yl)-2-ethoxy-N-methylpyrido[3,2-e][1,2,4]triazolo[4,3-a]pyrimidin-5-amine]	–	67.2 nM
